The record followed here is patent publication US10143668B2, “Hydroxy-substituted amino and ammonium derivatives and their medical use” (GRI BIO, INC., priority 2011, dated 2018).

Assay [1] relates to collagen type II-induced arthritis (CIA) in mice.
The test system of assay [2] is Akt phosphorylation on Ser473. As to the kind of experiment: Inhibition of activation of Akt kinase (phospho-Akt Ser473 assay in RBL-2H3 cells). As to conditions: IgE and antigen for 15 min. The format is cell-based, rat. The text has this:
The mast cell degranulation assay using the RBL-2H3 cell line (see example 5) was also used to determine the status of the PI3K/Akt axis. Activation of PI3K leads to production of PIP3 on the cytosolic side of the lipid bilayer. Akt is recruited to the PIP3 domain and subsequently activated by phosphorylation on residues Ser473 and Thr308. (Franke et al., Cell 81:727-736, (1995)). Once recruited to the membrane, it is phosphorylated and activated by other kinases (Hemmings, Science 275:628-630 (1997); Hemmings, Science 276:534 (1997); Downward, Science 279:673-674 (1998); Alessi et al., EMBO J. 15:6541-6551 (1996)). Western blotting of the phosphorylated Ser473 residue on Akt (phospho-Akt Ser473) is widely used to assess the level of activation of the PI3K/Akt axis.
All buffers and solutions used for the phosphor-Akt Ser473 assay were from Meso Scale Discovery. Tris Lysis Buffer consisted of 150 mM NaCl, 20 mM Tris, pH 7.5, 1 mM EDTA, 1 mM EGTA and 1% Triton-X-100. Complete Tris Lysis Buffer was prepared prior to use by addition of protease inhibitor, phosphatase inhibitors and PMSF. […] Read Buffer T was used according to manufacturer's instructions. […]
Protein assay: protein concentration was determined using the BCA (bicinchoninic acid) Protein Assay kit according to the manufacturer's instructions. […] Plates were cooled to room temperature for 5 min and absorbance at 562 nm was measured in a multi-mode plate reader. Protein concentrations were calculated using FlexStation 3 software (SoftMax Pro version 5.3). Protein concentration of lysates was determined from a standard curve (BSA) using a linear curve fit.
Phosphoprotein assay: protein phosphorylation was determined using the MULTI-SPOT® Assay System (Mesa Scale Discovery), providing simultaneous detection of phosphorylated and total proteins. […] The optimal amount of protein was determined at 5 μg lysate per well for ERK½ and 10 μg/well for phospho-Akt Ser473. […] After a final four washes with Tris Wash Buffer 150 μl/well, Read Buffer T was added, and plates read on a SECTOR Imager 6000 plate reader. […]

Where [3] appears, read: therapeutic regimen, 100 mg/kg orally twice daily for 20 days, vs vehicle.

Read-outs that look alike come from different tables or passages of the source.

For `CCCCCCCCCCCCCC[N+](C)(C)CC(=O)N(C)C[C@H](O)[C@@H](O)[C@H](O)[C@H](O)CO` [Compound 1a, N-(2-(Dimethyl(tetradecyl)ammonio)acetyl)-N-methyl-D-glucamine chloride], the cumulative arthritis score result was “significantly reduced” in assay [1] (prophylactic regimen); “reduced the arthritis score and cumulative arthritis score compared to vehicle treated mice (FIG. 5C), but without reaching statistical significance” in assay [1] (setting [3]). Also, the “duration of the disease” value in assay [1] (prophylactic regimen) is reported as “significantly reduced”. Further, the arthritic score result in assay [1] (prophylactic, 25 mg/kg orally twice daily, from day 34 to day 47, vs vehicle) is listed as “significantly reduced”; in assay [1] (prophylactic, 100 mg/kg orally twice daily, from day 40 to day 47, vs vehicle), “significantly reduced”. Besides, the paw thickness entry in assay [1] (prophylactic, 25 mg/kg, from day 34 after immunization, vs vehicle) is listed as “significant reduction”. In addition, the arthritis score result in assay [1] (setting [3]) is “reduced the arthritis score and cumulative arthritis score compared to vehicle treated mice (FIG. 5C), but without reaching statistical significance”. The duration of disease entry in assay [1] (therapeutic regimen, 100 mg/kg, vs vehicle) is recorded as “trend to a reduction”. Further, the results for the “Level of phospho-Akt Ser473” value in assay [2] (1 μM), in assay [2] (5 μM) and in assay [2] (25 μM) were 81.8 ± 42.5 % positive control, 22.6 ± 15.7 % positive control and 6.8 ± 1.8 % positive control, respectively.
